We go through 23 molecules from patent US11040981B2, “Pyrrolotriazine compounds and methods of inhibiting TAM kinases” (Syros Pharmaceuticals, Inc., priority 2017, dated 2021).

The target of assay [1] is T1, FLT3 (Homo sapiens, UniProt P36888).
T1 sequence (P36888 27-993): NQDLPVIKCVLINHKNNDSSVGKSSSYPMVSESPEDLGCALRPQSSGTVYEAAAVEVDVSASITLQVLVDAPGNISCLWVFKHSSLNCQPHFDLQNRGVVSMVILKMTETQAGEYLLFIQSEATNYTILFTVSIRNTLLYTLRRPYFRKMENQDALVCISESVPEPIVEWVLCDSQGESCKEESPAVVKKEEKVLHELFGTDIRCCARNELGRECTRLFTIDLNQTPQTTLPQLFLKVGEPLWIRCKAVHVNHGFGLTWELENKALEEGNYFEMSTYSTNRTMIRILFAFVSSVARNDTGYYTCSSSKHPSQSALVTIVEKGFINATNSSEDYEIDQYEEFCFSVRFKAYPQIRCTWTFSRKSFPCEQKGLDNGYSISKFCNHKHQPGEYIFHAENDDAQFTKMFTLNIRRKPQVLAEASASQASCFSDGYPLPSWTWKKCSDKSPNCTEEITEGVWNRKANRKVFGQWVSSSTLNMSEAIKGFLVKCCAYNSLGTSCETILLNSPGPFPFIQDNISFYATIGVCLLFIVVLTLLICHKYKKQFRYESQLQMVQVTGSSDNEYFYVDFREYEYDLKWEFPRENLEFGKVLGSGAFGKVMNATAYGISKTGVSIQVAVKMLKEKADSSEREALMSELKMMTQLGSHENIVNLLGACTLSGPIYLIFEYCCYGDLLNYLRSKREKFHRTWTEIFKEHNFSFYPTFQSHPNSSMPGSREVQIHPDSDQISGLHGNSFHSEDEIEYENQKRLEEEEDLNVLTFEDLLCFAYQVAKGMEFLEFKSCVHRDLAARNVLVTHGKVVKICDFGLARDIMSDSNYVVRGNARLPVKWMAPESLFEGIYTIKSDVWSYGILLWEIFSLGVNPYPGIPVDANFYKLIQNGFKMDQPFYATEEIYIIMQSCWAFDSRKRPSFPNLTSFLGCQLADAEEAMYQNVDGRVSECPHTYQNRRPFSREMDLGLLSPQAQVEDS
The experiment in a line: TR-FRET kinase activity assay, FLT3. It counts as biochemical. The settings on record: ATP at Km, 60 minutes. A digest of the protocol: (§1)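 Recombinant human kinases, fluorescent peptide substrate, ATP at Km; 1 h RT, pH 7.5. EDTA-quenched, Eu antibody added, TR-FRET read; IC50 determined.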
(In general: In TR-FRET formats the signal depends on donor and acceptor labels being close together.)

Assay [2] deals with T2, MERTK (Homo sapiens, UniProt Q12866).
T2 sequence (Q12866 21-999): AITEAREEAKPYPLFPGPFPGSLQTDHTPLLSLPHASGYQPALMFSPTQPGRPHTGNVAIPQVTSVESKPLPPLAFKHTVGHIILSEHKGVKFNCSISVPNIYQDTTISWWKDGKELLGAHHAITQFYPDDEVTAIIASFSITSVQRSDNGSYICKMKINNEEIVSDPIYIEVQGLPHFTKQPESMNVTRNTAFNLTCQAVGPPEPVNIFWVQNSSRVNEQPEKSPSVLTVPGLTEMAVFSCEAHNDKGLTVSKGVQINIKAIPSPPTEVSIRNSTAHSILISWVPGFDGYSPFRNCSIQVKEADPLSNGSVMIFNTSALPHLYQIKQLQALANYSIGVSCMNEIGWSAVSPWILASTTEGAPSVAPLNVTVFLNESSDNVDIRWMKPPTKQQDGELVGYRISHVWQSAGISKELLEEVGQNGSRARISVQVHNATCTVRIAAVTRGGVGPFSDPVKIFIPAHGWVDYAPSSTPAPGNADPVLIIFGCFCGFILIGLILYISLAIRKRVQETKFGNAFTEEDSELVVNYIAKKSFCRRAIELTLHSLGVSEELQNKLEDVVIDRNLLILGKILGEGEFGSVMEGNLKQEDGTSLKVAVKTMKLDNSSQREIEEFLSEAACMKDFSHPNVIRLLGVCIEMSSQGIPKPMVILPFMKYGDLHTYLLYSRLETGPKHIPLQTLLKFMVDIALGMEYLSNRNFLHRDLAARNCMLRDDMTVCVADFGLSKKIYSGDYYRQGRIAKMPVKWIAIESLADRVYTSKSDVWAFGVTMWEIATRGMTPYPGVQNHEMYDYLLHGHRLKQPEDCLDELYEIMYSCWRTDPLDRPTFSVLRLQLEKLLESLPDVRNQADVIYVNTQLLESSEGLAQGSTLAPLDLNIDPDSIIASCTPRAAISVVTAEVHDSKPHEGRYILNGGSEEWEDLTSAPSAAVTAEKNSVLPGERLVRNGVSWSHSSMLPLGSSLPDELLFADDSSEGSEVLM
Briefly: TR-FRET kinase activity assay, MERTK. It counts as biochemical. The conditions noted are these: for IC50: TR-FRET activity assay, ATP at Km, 60 minutes, read-out: Mer IC50; for FLT3/Mer ratio (FLT3 IC50/Mer IC50): ratio calculated as FLT3 IC50/Mer IC50. The method, boiled down:
as §1

Molecules are shown by their SMILES.

In general, IC50 refers to the concentration that gives 50% inhibition. Regarding `C[C@@H](COC(F)F)Nc1ncc2c(-c3cnn(CCS(C)(=O)=O)c3)cc([C@H]3CC[C@H](O)CC3)n2n1` [Compound 436], the IC50 in assay [1] was in the range of 100 to 1000 nM. Moreover, in assay [2], the IC50 is no more than 100 nM and the “FLT3/Mer ratio (FLT3 IC50/Mer IC50)” value is reported as “+++ (“+++” represents a ratio of >100)”.
Regarding `C[C@@H](COC(F)F)Nc1ncc2c(-c3cnn(CCC#N)c3)cc([C@H]3CC[C@H](O)CC3)n2n1` [Compound 437], the IC50 in assay [1] and in assay [2] was no more than 100 nM in each case. Further, the “FLT3/Mer ratio (FLT3 IC50/Mer IC50)” value in assay [2] was “+++ (“+++” represents a ratio of >100)”.
In the case of `COC[C@H](C)Nc1ncc2c(-c3ccnc(N4CCOC4=O)c3)cc([C@H]3CC[C@H](O)CC3)n2n1` [Compound 438], the IC50 in assay [1] was in the range of 1000 to 10000 nM. Moreover, in assay [2], the IC50 is no more than 100 nM and the “FLT3/Mer ratio (FLT3 IC50/Mer IC50)” value was “+++ (“+++” represents a ratio of >100)”.
Regarding `COC[C@H](C)Nc1ncc2c(-c3cnn(CC4CCO4)c3)cc([C@H]3CC[C@H](O)CC3)n2n1` (stereo partly drawn) [Compound 439], the IC50 in assay [1] lay in the range of 100 to 1000 nM. Besides, in assay [2], the IC50 was no more than 100 nM and the “FLT3/Mer ratio (FLT3 IC50/Mer IC50)” value is “+++ (“+++” represents a ratio of >100)”.
For `COC[C@H](C)Nc1ncc2c(-c3cnn(C(C)(C)c4nnc(C)o4)c3)cc([C@H]3CC[C@H](O)CC3)n2n1` [Compound 440] the same measures were 1000 to 10000 nM, no more than 100 nM and “+++ (“+++” represents a ratio of >100)”.
In turn, `C[C@@H](CC(F)(F)F)Nc1ncc2c(C3=CCNCC3)cc([C@H]3CC[C@H](O)CC3)n2n1` [Compound 442] returned an IC50 in assay [1] of no more than 100 nM. In addition, in assay [2], the IC50 was no more than 100 nM; the “FLT3/Mer ratio (FLT3 IC50/Mer IC50)” value is “++ (“++” represents a ratio of between 10 and 100)”.
As for `COC[C@H](C)Nc1ncc2c(C3=CCNCC3)cc([C@H]3CC[C@H](O)CC3)n2n1` [Compound 443], the IC50 in assay [1] lay in the range of 1000 to 10000 nM. Besides, in assay [2], the IC50 is no more than 100 nM and the “FLT3/Mer ratio (FLT3 IC50/Mer IC50)” value is recorded as “+++ (“+++” represents a ratio of >100)”.
For `COC[C@H](C)Nc1ncc2c(-c3csc(C(=O)N4CCOCC4)c3)cc([C@H]3CC[C@H](O)CC3)n2n1` [Compound 444], in that order: 100 to 1000 nM, no more than 100 nM and “+++ (“+++” represents a ratio of >100)”.
For `COC[C@H](C)Nc1ncc2c(-c3ccnc(N4C[C@H]5CC[C@@H](C4)O5)c3)cc([C@H]3CC[C@H](O)CC3)n2n1` [Compound 445], in that order: 100 to 1000 nM, no more than 100 nM and “+++ (“+++” represents a ratio of >100)”.
For `C[C@@H](CC(F)(F)F)Nc1ncc2c([C@H]3CC[C@@H](C(=O)N4CCOCC4)CC3)cc([C@H]3CC[C@H](O)CC3)n2n1` [Compound 446] the same measures were no more than 100 nM, no more than 100 nM and “+++ (“+++” represents a ratio of >100)”.
The molecule `COC[C@H](C)Nc1ncc2c(C#CC(C)(C)C(=O)N3CCOCC3)cc([C@H]3CC[C@H](O)CC3)n2n1` [Compound 449] yielded an IC50 in assay [1] of 1000 to 10000 nM. Moreover, in assay [2], the IC50 is no more than 100 nM and the “FLT3/Mer ratio (FLT3 IC50/Mer IC50)” value was “+++ (“+++” represents a ratio of >100)”.
With `COC[C@H](C)Nc1ncc2c(-c3cnn(C(C)(C)C(=O)N4CCC(C)(O)CC4)c3)cc([C@H]3CC[C@H](O)CC3)n2n1` [Compound 450], the results for the IC50 in assay [1] and in assay [2] were 1000 to 10000 nM and no more than 100 nM, respectively. In addition, the “FLT3/Mer ratio (FLT3 IC50/Mer IC50)” value in assay [2] is reported as “+++ (“+++” represents a ratio of >100)”.
For `COC[C@H](C)Nc1ncc2c(-c3cnn(C(C)(C)C(=O)N4CCC(C)(C#N)CC4)c3)cc([C@H]3CC[C@H](O)CC3)n2n1` [Compound 451], the IC50 is 100 to 1000 nM in assay [1] and no more than 100 nM in assay [2]. Further, in assay [2], the “FLT3/Mer ratio (FLT3 IC50/Mer IC50)” value is on record as “+++ (“+++” represents a ratio of >100)”.
For `C[C@H](CC(F)(F)F)Nc1ncc2c(C3=C[C@H]4CC[C@@H](C3)N4C(=O)OC(C)(C)C)cc([C@H]3CC[C@H](O)CC3)n2n1` [Compound 456] the same measures were no more than 100 nM, no more than 100 nM and “+++ (“+++” represents a ratio of >100)”.
In the case of `COC[C@H](C)Nc1ncc2c(-c3cnn(C(C)(C)CN4CCOCC4)c3)cc([C@H]3CC[C@H](O)CC3)n2n1` [Compound 459], the concentration for half-maximal inhibition (IC50) in assay [1] is 1000 to 10000 nM; in assay [2], no more than 100 nM. Also, the “FLT3/Mer ratio (FLT3 IC50/Mer IC50)” value in assay [2] is on record as “+++ (“+++” represents a ratio of >100)”.
For `COC[C@H](C)Nc1ncc2c(-c3ccc(C(C)(C)C(=O)N4CCOCC4)s3)cc([C@H]3CC[C@H](O)CC3)n2n1` [Compound 460], in that order: no more than 100 nM, no more than 100 nM and “+++ (“+++” represents a ratio of >100)”.
For `COC[C@H](C)Nc1ncc2c(C3=C[C@@H]4CC[C@H](C3)N4)cc([C@H]3CC[C@H](O)CC3)n2n1` [Compound 461] the same measures were 1000 to 10000 nM, no more than 100 nM and “+++ (“+++” represents a ratio of >100)”.
`COC[C@H](C)Nc1ncc2c(C3=C[C@@H]4CC[C@H](C3)N4C(C)=O)cc([C@H]3CC[C@H](O)CC3)n2n1` [Compound 462] yielded an IC50 in assay [1] of 100 to 1000 nM. In assay [2], the IC50 is no more than 100 nM and the “FLT3/Mer ratio (FLT3 IC50/Mer IC50)” value is recorded as “+++ (“+++” represents a ratio of >100)”.
For `COC[C@H](C)Nc1ncc2c(C3=C[C@@H]4CC[C@H](C3)N4C(=O)N3CCOCC3)cc([C@H]3CC[C@H](O)CC3)n2n1` [Compound 463] the same measures were 100 to 1000 nM, no more than 100 nM and “+++ (“+++” represents a ratio of >100)”.
Molecule `COC[C@H](C)Nc1ncc2c(-c3cccc(N4C[C@H]5COC[C@H]5C4)c3)cc([C@H]3CC[C@H](O)CC3)n2n1` [Compound 464] yielded an IC50 in assay [1] of 100 to 1000 nM. Besides, in assay [2], the IC50 is no more than 100 nM and the “FLT3/Mer ratio (FLT3 IC50/Mer IC50)” value is “+++ (“+++” represents a ratio of >100)”.
For `COC[C@H](C)Nc1ncc2c(C3=C[C@@H]4CC[C@H](C3)N4C)cc([C@H]3CC[C@H](O)CC3)n2n1` [Compound 465], in that order: 1000 to 10000 nM, no more than 100 nM and “+++ (“+++” represents a ratio of >100)”.
For `COC[C@H](C)Nc1ncc2c(-c3cnn(C(C)(C)C(=O)N4CCN(C)CC4)c3)cc([C@H]3CC[C@H](O)CC3)n2n1` [Compound 466], in that order: 1000 to 10000 nM, no more than 100 nM and “+++ (“+++” represents a ratio of >100)”.
For `COC[C@H](C)Nc1ncc2c(C3=C[C@H]4CC[C@@H](C3)N4)cc([C@H]3CC[C@H](O)CC3)n2n1` [Compound 467] the same measures were 1000 to 10000 nM, no more than 100 nM and “+++ (“+++” represents a ratio of >100)”.
